Results on 2 compounds are retold here after EP3067058A1, “BIOLOGICAL COMPOSITION BASED ON ENGINEERED LACTOBACILLUS PARACASEI SUBSP. PARACASEI F19 FOR THE BIOSYNTHESIS OF CANNABINOIDS” (Farmagens Health Care Srl, priority 2015, dated 2016).

For one series, the system named is Caco-2 cells. Briefly: MTT proliferation assay in human colon carcinoma cells. In kind it is cell-based. The note with it: 96 hrs incubation; 10^11 cfu; caproic acid 0.003-0.3µg/ml. The protocol: To confirm the chemo-preventive action of cannabidiol in the experimental conditions, a study on the putative pro-apoptotic and anticancer activity exerted by LP OAC-CAS-OLS-CsPT1+ probiotic was tested in vitro in human colon carcinoma cells. CBD release in human colon carcinoma cell line was measured at the different time points.
Caco-2 cell colture. Caco-2 cells were cultured in Dulbecco's Modified Eagle's Medium (DMEM) supplemented with 5% Foetal Bovine Serum (FBS), 2 mM glutamine, 100 U/mL penicillin, 100 µg/mL streptomycin at 37 °C in 5% CO2/95% air. At confluence cells were washed three times with Phosphate Buffer Saline (PBS), detached with tripsyn/EDTA, plated in 10 cm diameter Petri dishes and left to adhere for 24 hrs. […]
MTT Proliferation and survival assays. Cell proliferation was evaluated by 3-[4,5-dimethylthiazol-2-yl]-2,5 diphenyltetrazolium bromide (MTT) assay. […] After this time point, the cells were lysed and the dark blue crystals solubilized with 125 µl of a solution containing 50% (N,N-dimethylformamide, 20% (w/v) sodium dodecylsulphate (pH 4.5). The optical density (OD) of each well was measured with a Perkin-Elmer (Waltham, MA, USA) microplate spectrophotometer equipped with a 620 nm filter. Cell viability in response to pentamidine was calculated as % cell viability (OD treated/OC control) X 100.

For the next series, the system named is Bax. The experiment in a line: Immunoblot of pro-apoptotic Bax protein in Caco-2 cells. In kind it is cell-based, human. The note with it: 96 hrs incubation; 10^11 cfu; caproic acid 0.003-0.3µg/ml. The protocol:
Caco-2 cell colture. Caco-2 cells were cultured in Dulbecco's Modified Eagle's Medium (DMEM) supplemented with 5% Foetal Bovine Serum (FBS), 2 mM glutamine, 100 U/mL penicillin, 100 µg/mL streptomycin at 37 °C in 5% CO2/95% air. At confluence cells were washed three times with Phosphate Buffer Saline (PBS), detached with tripsyn/EDTA, plated in 10 cm diameter Petri dishes and left to adhere for 24 hrs. Thereafter, DMEM was replaced with fresh medium and cells were treated for 96 hrs with 10^11 cfu LP OAC-CAS-OLS-CsPT1^+, with caproic acid 0.003-0.3µg/ml or LP empty vector with caproic acid 0.003-0.3µg/ml.
The pro-apoptotic effect in Caco-2 cell cultured in the presence of LP OAC-CAS-OLS-CsPT1+ or LP empty vector was tested by immunoblot analysis of pro-apoptotic proteins level (Bax), as well as by rate of cells proliferation (MTT).
Immunoblot of Bax protein. Briefly, after homogenization in ice-cold hypotonic lysis buffer, protein concentration was determined using Bio-Rad protein assay kit (Bio-Rad, Milan, Italy). Analysis of Bax and β-actin protein expression was performed on total protein fractions of homogenates. Equivalent amounts (30 µg) of each homogenate underwent electrophoresis through a polyacrilamide minigel. […] Protein bands were then scanned and densitometrically analyzed with a GS-700 imaging densitometer.
Background: In western blotting, separated proteins are transferred to a membrane and probed.

For series [1] the following is noted: smoking; cited from earlier work.

Regarding `CCCCCC(=O)O` [caproic acid], in the series on Caco-2 cells, the “cell proliferation (MTT)” value is reported as “no significant effect”. For the same compound, the “expression level of the pro-apoptotic protein Bax-2” value with Bax was “no significant effect”.
`CCCCCc1cc(O)c2c(c1)OC(C)(C)[C@@H]1CCC(C)=C[C@@H]21` [Δ^9-THC, (-)-trans-Δ9-tetrahydrocannabinol]: the “Δ^9-THC content in a cannabis cigarette that is absorbed” value in series [1] is listed as “about 20%”.
